The values that follow are results of earlier work, collected in patent publication US20060234982A1 (priority 2003, published 2006).

For one data set, the system named is HIV-1. Conditions: in vitro, with recombinant soluble CD4, castanospermine or recombinant interferon-α.
The next data set relates to HBV. Conditions: variety of cell types.
Experiment in data set [1]: not given
The source holds these as a separate data set.

The mark [2] stands for this setting: relative to tenofovir, HIV in culture.

Regarding `Cc1cn([C@H]2C[C@H](N=[N+]=[N-])[C@@H](CO)O2)c(=O)[nH]c1=O` [AZT, 3′-azido, 3′-deoxythymidine], the “antiviral activity in combination” value with HIV-1 is reported as “synergistic antiviral activity”.
Consider `CC(C)OC(=O)[C@H](C)N[P@](=O)(CO[C@H](C)Cn1cnc2c(N)ncnc21)Oc1ccccc1` [GS-7340, 9-[(R)-2-[[(S)-[[(S)-1-(isopropoxycarbonyl)ethyl]amino]phenoxyphosphinyl]methoxy]propyl]adenine], for which, in the data set on HIV (setting [2]), the “fold more effective than tenofovir against HIV in culture” value is on record as 100 fold and the “times more effective than tenofovir against HIV in culture” value is listed as 1000 times. Besides, in the data set with HIV (relative to the diastereomer with R-configuration at P), the “S-configuration (at phosphorus) diastereomer more effective than R-configuration diastereomer” value is listed as 10 fold. The “effectiveness against HIV in vitro” value in the data set on HIV (variety of cell types) is given as “effective”. Further, in the data set on HBV, the “effectiveness against HBV in vitro” value is on record as “effective”. For the same compound, under “dogs and rhesus monkeys”, the “hydrolysis in lymphatic tissue” value is listed as “selectively hydrolyzed inside lymphatic tissue” and the plasma stability entry is listed as “stable in plasma”. Also, the oral bioavailability (dogs and rhesus monkeys, oral) was 20%. The tissue distribution entry (in vivo and in vitro characterization, selective intracellular activation) was “preferential distribution in lymphatic tissues”.
Take `C[C@H](Cn1cnc2c(N)ncnc21)OCP(=O)(O)O` [Tenofovir, (R)-9-(2-phosphonylmethoxypropyl)adenine]: the pKa – broadly, the negative logarithm of the acid dissociation constant – in data set [1] is given as 3.8.
